Each structure is given as a SMILES string.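 Where inhibition never reached the appropriate level, the endpoint shown equals the highest concentration tested. Otherwise, values were interpolated linearly from a five-concentration, 48-hour dose response in 96-well plates. GI50: concentration for 50% inhibition of growth.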 Active and inactive are the calls of the source. Rule as the data show it: active = GI50 up to about 1.1 µM and inactive = higher.

What all share (experiment): growth of human tumour cells (NCI), 48 h
Test [1] relates to A549.
In test [2] the test system is CCRF-CEM.
Test [3] concerns DMS-273.
Test [4] relates to HCT-116.
Test [5] concerns HCT-15.
Test [6] concerns K562.
Test [7] concerns MOLT-4.
The test system of test [8] is RXF 393.
The subject of test [9] is SF-268.
Test [10] relates to SF-539.
Test [11] deals with SK-MEL-28.
The test system of test [12] is SK-OV-3.
Test [13] concerns SN12C.
The subject of test [14] is U-251.
The subject of test [15] is UO-31.
The test system of test [16] is EKVX.
The test system of test [17] is OVCAR-5.
The subject of test [18] is SW-620.
Test [19] concerns HCC 2998.
Test [20] concerns HOP-92.

As to `On1c(-c2ccccc2)c(-c2c(-c3ccccc3)n(O)c3ccccc23)c2ccccc21`, the GI50 in test [1] is 32.4 µM (inactive); in test [2] it was 34.3 µM (inactive); in test [3] it was 39.6 µM (inactive); in test [4], 48.5 µM (inactive); in test [5], 41 µM; in test [6] it was 36.6 µM (inactive). Moreover, the GI50 is 37.7 µM (inactive) in [7]; 20.9 µM (inactive) in test [8]; 55 µM (inactive) in test [9]; 24.8 µM (inactive) in test [10]; 61.9 µM (inactive) in [11]; 29.8 µM (inactive) in [12]. Also, the figures for the GI50 in [13], in test [14] and in [15] were 46.3 µM (inactive), 35.5 µM (inactive) and 15.5 µM (inactive), respectively.
`CN(C)CC/C(=N\Nc1ccc([N+](=O)[O-])cc1)c1ccccc1`: the GI50 in [1] is 13.4 µM (inactive); in [2], 7.23 µM (inactive); in test [3] it was 10.3 µM (inactive); in test [16] it was 14.3 µM (inactive); in test [4], 11.7 µM (inactive); in test [5], 13.6 µM. For the same compound, the GI50 in [6] is 3.48 µM (inactive); in test [7], 7.43 µM (inactive); in [17], 15 µM (inactive); in [8], 4.5 µM (inactive); in test [9], 7.94 µM (inactive); in [10], 7.28 µM (inactive). Also, the GI50 in test [11] was 12.7 µM (inactive); in test [12] it was 16.1 µM (inactive); in [13] it was 10.9 µM (inactive); in test [18], 13.4 µM (inactive); in test [14], 12.4 µM (inactive); in [15], 2.1 µM (inactive).
For the compound `CCCCCC/C=C/CCCCCCCc1cccc(O)c1C(=O)O`, the GI50 in test [1] is 50.4 µM (inactive); in [2], 39.5 µM (inactive); in test [3], 34.9 µM (inactive); in [16], 32.7 µM (inactive); in [4] it was > 100 µM (inactive); in [5], 38.4 µM. In addition, the GI50 in test [6] is 37.2 µM (inactive); in test [7], 48.5 µM (inactive); in [17], > 100 µM (inactive); in test [9], 26.9 µM (inactive); in [10] it was 59.4 µM (inactive); in test [11], 83 µM (inactive). Moreover, the GI50 in test [12] is 36.3 µM (inactive); in test [18], 62.4 µM (inactive); in [14], 27.3 µM (inactive); in test [15], 86.9 µM (inactive).
As to `C[C@]12CC[C@H]3[C@@H](CC[C@]4(O)C[C@@H](O)CC[C@]34CO)[C@@]1(O)CC[C@@H]2C1=CC(=O)OC1` [STROPHANTHIDOL], the GI50 in test [1] was 0.453 µM (active); in test [2] it was 0.522 µM (active); in [16], 1.39 µM (inactive); in [19], 22.9 µM (inactive); in test [4], 0.553 µM (active); in test [5], 2 µM. Also, the GI50 in test [20] was 2.78 µM (inactive); in [6], 2.21 µM (inactive); in [7], 0.225 µM (active); in test [17], 3.07 µM (inactive); in [8] it was 0.223 µM (active); in test [9], 0.982 µM (active). Also, the GI50 in test [10] was 1.15 µM (inactive); in test [11] it was 4.78 µM (inactive); in [12] it was 2.64 µM (inactive); in test [13], 3.47 µM (inactive); in [18] it was 2.37 µM (inactive); in [14], 2.7 µM (inactive). The GI50 in [15] is 1.9 µM (inactive).
On to `N#Cc1nc(-c2cccs2)oc1N`, for which the GI50 in [1] is > 100 µM (inactive); in test [2], 70.6 µM (inactive); in test [16], 75 µM (inactive); in test [19], > 100 µM (inactive); in test [4] it was > 100 µM (inactive); in test [5] it was over 100 µM. The GI50 in test [20] was 90.2 µM (inactive); in test [6] it was > 100 µM (inactive); in test [7], > 100 µM (inactive); in [17] it was > 100 µM (inactive); in [8], > 100 µM (inactive); in test [9] it was > 100 µM (inactive). The GI50 in test [10], in [11], in test [12], in test [13], in test [18] and in test [14] was > 100 µM (inactive) throughout. For the same compound, the GI50 in test [15] was 62.4 µM (inactive).
As to `O=c1cc2n(c(=O)[nH]1)C1OC(C(O)C1O)[C@@H]2CCO` (some centres undefined), the GI50 in test [1], in test [2], in test [3], in [16], in test [20] and in test [6] was > 100 µM (inactive) in each case. Further, the GI50 in test [7], in test [17], in [8], in test [9], in [10] and in test [11] was > 100 µM (inactive) each time. Further, the GI50 in test [12], in test [13], in test [18], in [14] and in test [15] was > 100 µM (inactive) throughout.
Take `C/C(=N\Nc1nc2ccccc2s1)c1cccc[n+]1[O-]`: the GI50 is 42.8 µM (inactive) in test [1]; 25.2 µM (inactive) in test [2]; 2.33 µM (inactive) in test [16]; 0.0252 µM (active) in test [19]; 7.55 µM (inactive) in test [4]; 34.2 µM in test [5]. Further, the GI50 was 13.5 µM (inactive) in [20]; 31.4 µM (inactive) in test [6]; 1.81 µM (inactive) in test [7]; 2.33 µM (inactive) in test [17]; 66.2 µM (inactive) in [8]; 36.2 µM (inactive) in [9]. Also, the GI50 in test [10] is 45.1 µM (inactive); in test [11], > 100 µM (inactive); in [12], 37.4 µM (inactive); in [13], 48.9 µM (inactive); in test [18], 32.7 µM (inactive); in [14], 47 µM (inactive). Further, the GI50 in test [15] is 20 µM (inactive).
Take `Cc1ccc(/C=N/Nc2cnccn2)s1`: the GI50 in test [1] was > 100 µM (inactive); in test [2] it was > 100 µM (inactive); in test [16], 80.5 µM (inactive); in test [19], > 100 µM (inactive); in test [4], > 100 µM (inactive); in [5], over 100 µM. Also, the GI50 in test [20] is > 100 µM (inactive); in test [6] it was 65.2 µM (inactive); in test [7], 65.2 µM (inactive); in test [17], > 100 µM (inactive); in test [8], > 100 µM (inactive); in test [9], > 100 µM (inactive). Also, the GI50 is > 100 µM (inactive) in test [10]; > 100 µM (inactive) in [11]; > 100 µM (inactive) in test [12]; 42.6 µM (inactive) in test [13]; > 100 µM (inactive) in test [18]; > 100 µM (inactive) in test [14]. The GI50 in test [15] is > 100 µM (inactive).
Turning to `O=C(CCl)Nc1ccc(-c2nc3ccccc3s2)cc1`, the GI50 in test [1] is 10 µM (inactive); in test [2], 0.94 µM (active); in test [16], 6.97 µM (inactive); in test [19], 2.51 µM (inactive); in [4] it was 2.16 µM (inactive); in [5] it was 2.18 µM. Besides, the GI50 in [20] is 2.36 µM (inactive); in [6] it was 1.91 µM (inactive); in [7], 1.74 µM (inactive); in test [17] it was 5.82 µM (inactive); in test [8], 3.43 µM (inactive); in [9], 2.81 µM (inactive). Besides, the GI50 in test [10] was 3.04 µM (inactive); in test [11], 4.12 µM (inactive); in [12] it was 4.78 µM (inactive); in test [13], 1.87 µM (inactive); in test [18] it was 2.21 µM (inactive); in test [14], 1.64 µM (inactive). Moreover, the GI50 in [15] is 13 µM (inactive).
As for `Nc1nc(Cl)cc(NCC2(CO)CCCC2)n1`, the GI50 in test [1] is > 100 µM (inactive); in test [2], > 100 µM (inactive); in test [16], > 100 µM (inactive); in test [19], > 100 µM (inactive); in test [4], > 100 µM (inactive); in test [5], over 100 µM. The GI50 in test [20] is 52.5 µM (inactive); in test [6] it was > 100 µM (inactive); in [7], > 100 µM (inactive); in [17], > 100 µM (inactive); in test [8], > 100 µM (inactive); in test [9], > 100 µM (inactive). Moreover, the GI50 in test [10], in [11], in [12], in [13], in test [18] and in test [14] was > 100 µM (inactive) throughout. In test [15], the GI50 was > 100 µM (inactive).
As to `COc1cccc(C(C#N)NC23CC4CC(CC(C4)C2)C3)c1` (centres undefined), the GI50 in test [1] is > 100 µM (inactive); in [2], > 100 µM (inactive); in test [16] it was 85.5 µM (inactive); in test [19], > 100 µM (inactive); in test [4], > 100 µM (inactive); in test [5], over 100 µM. The GI50 in test [20], in test [6], in [7], in [17], in test [8] and in test [9] was > 100 µM (inactive) each time. Also, the GI50 in [10], in [11], in test [12], in [13], in [18] and in [14] was > 100 µM (inactive) in each case. Further, the GI50 in test [15] is > 100 µM (inactive).

These data come from ChEMBL document CHEMBL1201862, “PubChem BioAssay data set” (2004).
